We go through one compound from PMC12680861, “Comparative analysis of LJ-4378 and tirzepatide in mouse models of obesity and weight regain” (Archives of Pharmacal Research, 2025).

Each structure is given as a SMILES string.

In one data set the target is T1, CYP1A2 (Homo sapiens, UniProt P05177).
T1 sequence (P05177 1-516): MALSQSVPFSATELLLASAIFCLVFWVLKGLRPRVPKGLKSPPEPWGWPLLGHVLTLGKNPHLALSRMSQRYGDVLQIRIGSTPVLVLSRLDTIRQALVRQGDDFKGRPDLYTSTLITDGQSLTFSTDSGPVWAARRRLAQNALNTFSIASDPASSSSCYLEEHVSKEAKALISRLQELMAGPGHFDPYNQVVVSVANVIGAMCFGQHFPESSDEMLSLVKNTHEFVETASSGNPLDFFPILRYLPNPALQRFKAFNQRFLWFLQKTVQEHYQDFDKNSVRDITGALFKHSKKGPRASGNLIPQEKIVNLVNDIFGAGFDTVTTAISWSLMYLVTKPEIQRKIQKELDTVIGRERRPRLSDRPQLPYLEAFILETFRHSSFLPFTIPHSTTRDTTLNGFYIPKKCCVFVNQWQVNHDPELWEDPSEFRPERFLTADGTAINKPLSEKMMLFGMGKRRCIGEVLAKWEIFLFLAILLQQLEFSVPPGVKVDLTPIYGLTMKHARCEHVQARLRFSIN
In words: CYP enzyme inhibition in pooled human liver microsomes (phenacetin substrate). The note with it: microsomes, 10 µM. The procedure:
Cytochrome 450 (CYP) enzyme inhibition was evaluated using pooled human liver microsomes (Corning, #452117). […] Substrates and corresponding metabolites for each CYP isoform were as follows: phenacetin and acetaminophen for CYP1A2 (Sigma Aldrich, #77440 and A7085, respectively), diclofenac and 4'-hydroxydiclofenac for CYP2C9 (Sigma Aldrich, D6899; TRC, H825225), S-mephenytoin and 4'-hydroxymephenytoin for CYP2C19 (Sigma Aldrich, UC175; Santacruz, sc210197), dextromethorphan and dextrorphan for CYP2D6 (Sigma Aldrich, #81091 and UC205), and midazolam and 1'-hydroxymidazolam for CYP3A4 (KFDA; Sigma Aldrich, UC430).
Samples were preincubated at 37 °C for 5 min, and the reaction was initiated by the addition of the NADPH regeneration system, followed by incubation at 37 °C for 15 min. The reaction was terminated by adding acetonitrile containing the internal standard, and centrifuged at 15,000 rpm for 5 min at 4 °C. The supernatant was analyzed by LC–MS/MS using a Nexera XR system (Shimadzu, Japan) coupled with a TSQ Vantage mass spectrometer (Thermo, USA). […] Metabolites were quantified in multiple reaction monitoring (MRM) mode with Xcalibur software (version 4.4).
All experiments were performed in duplicate with variability ≤ 15%. The percent activity of each CYP enzyme was calculated based on metabolite formation relative to the no-inhibitor control.
Background: Liver microsomes are vesicles of endoplasmic reticulum, rich in cytochrome P450 enzymes.

The nature of data set [1]: Pharmacokinetic study in mice, single I.V. or P.O. administration. Type of data set: in vivo, male C57BL/6 J mice. To be noted: for F (oral bioavailability): dose-normalized AUCinf. As to the method: The pharmacokinetics of LJ-4378 were evaluated in male C57BL/6 J mice following a single administration by either the oral (P.O.) or intravenous (I.V.) route. For P.O., LJ-4378 was administered at 10, 20, or 50 mg/kg in a vehicle composed of 0.5 mg/mL L-ascorbic acid, 5% DMSO, 20% PEG400, 20% Tween 80, and 55% of 0.1% copovidone. For I.V. administration, a 2 mg/kg dose was delivered via tail vein injection in a vehicle consisting of 5% DMSO, 25% PEG400, and 70% sterile water. Blood samples (200 μL) were collected at 5, 15, and 30 min and 1, 2, 4, 8, 12, and 24 h post-dose for the P.O. groups, and at 2, 5, 15, and 30 min and 1, 2, 4, 8, and 12 h post-dose for the I.V. group. Plasma was separated by centrifugation, and the concentrations of LJ-4378 were determined using a validated LC–MS/MS method. Pharmacokinetic parameters were calculated using non-compartmental analysis with Phoenix WinNonlin (v8.3), and included Cmax, Tmax, AUClast, AUCinf, t1/2, and clearance (Maclean et al. [2011]). Oral bioavailability was calculated using dose-normalized AUCinf values.

What is called Cmax is the peak of the concentration-time curve. The term Tmax denotes the time from dosing to the highest level. For the compound `CCCCC#Cc1nc(N)c2ncn([C@@H]3SC[C@@H](O)[C@H]3O)c2n1` [LJ-4378], on CYP1A2, the “% of control activity CYP1A2” value came out at 82.2%. Besides, in data set [1] (I.V. 2.00 mg/kg), the AUC0-t is 411.45 ng·h/mL, the CL is given as 80.7 (mL/min)/kg, the Cmax is 2395.23 ng/mL and the Tmax was 1.8 min. The t1/2 in data set [1] (I.V. 2.00 mg/kg) stood at 27.6 min. In data set [1] (P.O. 10.00 mg/kg), the AUC0-t was 1273.67 ng·h/mL, the CL is recorded as 128.5 (mL/min)/kg, the Cmax came out at 1220.57 ng/mL and the Tmax came to 4.8 min. Also, in data set [1] (P.O. 10.00 mg/kg), the t1/2 amounted to 158 min and the “F (oral bioavailability)” value amounted to 62.93%. For the same compound, in data set [1] (P.O. 20.00 mg/kg), the AUC0-t came to 3067.21 ng·h/mL, the CL is listed as 103.2 (mL/min)/kg, the Cmax came out at 2401.74 ng/mL and the Tmax worked out at 15 min. Further, in data set [1] (P.O. 20.00 mg/kg), the t1/2 was determined as 233 min and the “F (oral bioavailability)” value turned out to be 78.42%. In addition, in data set [1] (P.O. 50.00 mg/kg), the AUC0-t came out at 8446.78 ng·h/mL, the CL is on record as 93.0 (mL/min)/kg, the Cmax turned out to be 5307.60 ng/mL and the Tmax worked out at 30 min. Moreover, in data set [1] (P.O. 50.00 mg/kg), the t1/2 amounted to 187 min and the “F (oral bioavailability)” value is recorded as 86.08%.
